Experimental data taken from patent publication US4360511A, “Amines useful as brain imaging agents” (Medi-Physics, Inc., priority 1980, dated 1982).
Where two headings read alike, the source gives them in different places.

Assay: Bioassay: distribution of I-123-labeled compounds in organs of rats after tail vein injection (percent dose/gram, brain/blood ratio)
Format: in vivo, Female Sprague-Dawley rats
Details: for Brain/Blood Ratio 5 min. / tissue uptake at 5 min: 5 minutes post-injection; for Brain/Blood Ratio 60 min. / tissue uptake at 1 h: 60 minutes post-injection; for tissue uptake at 5 min / tissue uptake at 1 h: rat, iv, 0.05 to 1.0 mCi, two rats
Protocol: Female Sprague-Dawley rats weighing approximately 150 g were anesthetized with sodium pentobarbital and were injected in a tail vein with from 0.05 to 1.0 mCi (in a volume of 0.2 to 0.5 ml) of the I-123-labeled compound. Two specimens were utilized for each test.
Two animals each were sacrificed at 5 minutes and 60 minutes post-injection, the tails discarded and the amount of activity in various organs determined. Each organ was counted at a standardized geometry with a sodium iodide crystal scintillation counter adjusted for the 159 keV emission of I-123. The organs were also weighed to one thousandth of a gram and the activity calculated as a percent of administered dose per gram of organ weight.
The ratio of brain-to-blood activity was calculated as a percent of administered dose per gram.

[1] = blood, read-out: Percent Dose/Gram Blood 5 min.
[2] = blood, read-out: Percent Dose/Gram Blood 60 min.
[3] = brain, read-out: Percent Dose/Gram Brain 5 min.
[4] = brain, read-out: Percent Dose/Gram Brain 60 min.
[5] = heart, read-out: Percent Dose/Gram Heart 5 min.
[6] = heart, read-out: Percent Dose/Gram Heart 60 min.

Row | SMILES | Brain/Blood Ratio 5 min. | Brain/Blood Ratio 60 min. | tissue uptake at 5 min [1] | tissue uptake at 1 h [2] | tissue uptake at 5 min [3] | tissue uptake at 1 h [4] | tissue uptake at 5 min [5] | tissue uptake at 1 h [6]
1 | CCCNCc1ccccc1[123I] [I--123-N--propyl-o-iodobenzylamine] | 3.81 | 1.84 | 0.27 %ID/g | 0.32 %ID/g | 1.03 %ID/g | 0.59 %ID/g | 0.77 %ID/g | 0.59 %ID/g
2 | CC(C)Nc1ccc([123I])cc1 [I--123-N--isopropyl-p-iodoaniline] | 2.55 | 0.33 | 0.48 %ID/g | 0.79 %ID/g | 1.23 %ID/g | 0.26 %ID/g | 1.01 %ID/g | 0.61 %ID/g
3 | NC(=O)C(Nc1ccc([123I])cc1)c1ccccc1 (stereo not drawn) [I--123-α-(p-iodoanilino)phenylacetamide] | 1.30 | – | 0.71 %ID/g | – | 0.92 %ID/g | – | 1.42 %ID/g | –
4 | N#CC(Nc1ccccc1)c1ccccc1[123I] (stereo not drawn) [I--123-α-anilino-o-iodophenylacetonitrile] | 4.68 | 1.41 | 0.17 %ID/g | 0.1 %ID/g | 0.8 %ID/g | 0.14 %ID/g | 0.9 %ID/g | 0.24 %ID/g
5 | [123I]c1ccccc1CNCCc1ccccc1 [I--123-N--β-phenethyl-o-iodobenzylamine] | 2.52 | 0.96 | 0.27 %ID/g | 0.14 %ID/g | 0.68 %ID/g | 0.14 %ID/g | 0.56 %ID/g | 0.15 %ID/g
6 | Nc1ccccc1[123I] [I--123-o-iodoaniline] | 0.28 | 0.07 | 1.7 %ID/g | 0.44 %ID/g | 0.47 %ID/g | 0.03 %ID/g | 1.02 %ID/g | 0.17 %ID/g
7 | CC1CCC(C)N1Cc1ccccc1[123I] (centres unmarked) [I--123-N--o-iodobenzyl-2,5-dimethylpyrrolidine] | 3.17 | 1.52 | 0.37 %ID/g | 0.15 %ID/g | 1.16 %ID/g | 0.22 %ID/g | 1.03 %ID/g | 0.46 %ID/g
8 | CC(Cc1ccccc1)Nc1ccccc1[123I] (racemic) [I--123-N--(o-iodophenyl)amphetamine (dl)] | 1.81 | 0.75 | 0.53 %ID/g | 0.55 %ID/g | 0.96 %ID/g | 0.41 %ID/g | 1.64 %ID/g | 0.57 %ID/g
9 | CC(C)NCc1cccc([123I])c1 [I--123-N--isopropyl-m-iodobenzylamine] | 7.35 | 4.16 | 0.22 %ID/g | 0.21 %ID/g | 1.61 %ID/g | 0.85 %ID/g | 0.99 %ID/g | 0.46 %ID/g
10 | CC(C)Nc1ccccc1[123I] [I--123-N--isopropyl-o-iodoaniline] | 1.13 | 0.26 | 0.78 %ID/g | 0.5 %ID/g | 0.88 %ID/g | 0.13 %ID/g | 0.75 %ID/g | 0.29 %ID/g
11 | CC(C)N(CCc1ccccc1)CCc1ccccc1[123I] [I--123-N--β-phenethyl-N--isopropyl-o-iodo-β-phenethylamine] | 1.83 | – | 0.29 %ID/g | – | 0.53 %ID/g | – | 2.01 %ID/g | –
12 | NCCc1ccccc1[123I] [I--123-o-iodo-β-phenethylamine] | 0.49 | – | 1.43 %ID/g | – | 0.7 %ID/g | – | 1.22 %ID/g | –
13 | CNCCc1ccccc1[123I] [I--123-N--methyl-o-iodo-β-phenethylamine] | 0.49 | – | 1.16 %ID/g | – | 0.57 %ID/g | – | 1.07 %ID/g | –
14 | Nc1ccc([123I])cc1 [I--123-p-iodoaniline] | 1.12 | 1.00 | 0.97 %ID/g | 0.8 %ID/g | 1.09 %ID/g | 0.8 %ID/g | 1.11 %ID/g | 0.8 %ID/g
15 | [123I]c1ccccc1NCc1ccccc1 [I--123-N--benzyl-o-iodoaniline] | 2.23 | 0.80 | 0.3 %ID/g | 0.36 %ID/g | 0.67 %ID/g | 0.29 %ID/g | 0.34 %ID/g | 1.25 %ID/g
16 | CC(C)(C)NCc1ccccc1[123I] [I--123-N--t-butyl-o-iodobenzylamine, I-123-N-t-butyl-o-iodobenzylamine] | 8.85 | 8.16 | 0.17 %ID/g | 0.11 %ID/g | 1.49 %ID/g | 0.89 %ID/g | 1.04 %ID/g | 0.49 %ID/g
17 | CC(Cc1ccccc1)NCc1ccccc1[123I] (racemic) [I--123-N--o-iodobenzylamphetamine (dl)] | 3.93 | 1.89 | 0.27 %ID/g | 0.19 %ID/g | 1.06 %ID/g | 0.36 %ID/g | 0.72 %ID/g | 0.37 %ID/g
18 | [123I]c1ccccc1CN(CCc1ccccc1)CCc1ccccc1 [I--123-N,N--di-β-phenethyl-o-iodobenzylamine] | 1.03 | – | 1.03 %ID/g | – | 1.06 %ID/g | – | 3.61 %ID/g | –
19 | Cc1cccc(C)c1NC(=O)CNCCc1ccccc1[123I] [I--123-N--(2,6-dimethylphenylcarbamoyl)methyl-o-iodo-β-phenethylamine] | 1.33 | 0.31 | 0.55 %ID/g | 0.26 %ID/g | 0.73 %ID/g | 0.08 %ID/g | 0.74 %ID/g | 0.21 %ID/g
20 | CC(C)NCc1ccccc1[123I] [I--123-N--isopropyl-o-iodobenzylamine, I-123-N-isopropyl-o-iodobenzylamine] | 7.63 | 1.04 | 0.16 %ID/g | 0.62 %ID/g | 1.21 %ID/g | 0.64 %ID/g | 0.72 %ID/g | 0.47 %ID/g
21 | [123I]c1ccccc1NCCc1ccccc1 [I--123-N--β-phenethyl-o-iodoaniline] | 1.24 | 0.33 | 1.04 %ID/g | 0.48 %ID/g | 1.29 %ID/g | 0.16 %ID/g | 1.16 %ID/g | 0.33 %ID/g
22 | [123I]c1ccc(NCCc2ccccc2)cc1 [I--123-N--β-phenethyl-p-iodoaniline] | 1.06 | – | 0.88 %ID/g | – | 0.93 %ID/g | – | 1.38 %ID/g | –
23 | [123I]c1ccc(N(Cc2ccccc2)Cc2ccccc2)cc1 [I--123-N,N--dibenzyl-p-iodoaniline] | 0.53 | 0.54 | 0.66 %ID/g | 0.41 %ID/g | 0.35 %ID/g | 0.22 %ID/g | 2.1 %ID/g | 0.46 %ID/g
24 | [123I]c1ccccc1CCN1CCCCC1 [I--123-N--o-iodo-β-phenethylpiperidine] | 2.35 | – | 0.46 %ID/g | – | 1.08 %ID/g | – | 1.68 %ID/g | –
25 | CC(C)N(Cc1ccccc1[123I])C(C)C [I--123-N,N--diisopropyl-o-iodobenzylamine] | 5.73 | 1.31 | 0.25 %ID/g | 0.35 %ID/g | 1.4 %ID/g | 0.46 %ID/g | 2.12 %ID/g | 0.46 %ID/g
26 | C[C@@H](N)Cc1ccc([123I])cc1 [I--123-R--p-iodoamphetamine, I-123-R-p-iodoamphetamine] | 10.60 | 18.50 | 0.15 %ID/g | 0.12 %ID/g | 1.38 %ID/g | 2.07 %ID/g | 2.43 %ID/g | 1.09 %ID/g
27 | CCCNCCc1ccccc1[123I] [I--123-N--propyl-o-iodo-β-phenethylamine] | 4.03 | 2.20 | 0.29 %ID/g | 0.2 %ID/g | 1.17 %ID/g | 0.44 %ID/g | 1.54 %ID/g | 0.23 %ID/g
